Values quoted from earlier work, collected in patent US11229230B2, “Antioxidant-enriched multivitamin composition and methods of use” (Callion Pharma, LLC, priority 2016, dated 2022).

Experiments:
cystic fibrosis patients = conditions: inhaled
cystic fibrosis = conditions: oral treatment, Phase II clinical study

In the case of N[C@@H](CCC(=O)N[C@@H](CS)C(=O)NCC(=O)O)C(=O)O [glutathione], the “effectiveness in cystic fibrosis” value (cystic fibrosis patients) is listed as “has not been effective”.

For CC(=O)N[C@@H](CS)C(=O)O [N-acetylcysteine], the lung function (cystic fibrosis) is listed as “did not improve lung function”.
